MIC data for seven molecules are collected here from patent publication US4001218A, “Penicillins” (Bayer Aktiengesellschaft, priority 1972, dated 1977).

Where only a bound is given, the exact number is not on record here.

Assay [1] has as its system Enterococcus 9790. Briefly: MIC, test tube series dilution test, Enterococcus 9790. The assay is classed as cell-based. To be noted: 24 hours, 37°C.
In assay [2] the test system is Psdm. aerug. F 41. Briefly: MIC, test tube series dilution test, Psdm. aerug. F 41. The assay is classed as cell-based, Pseudomonas aeruginosa. To be noted: Psdm. aerug. F 41; 24 hours, 37°C.
Assay [3] relates to Staph. aureus 133. The assay is classed as cell-based, Staphylococcus aureus. To be noted: Staph. aureus 133; 24 hours, 37°C.
Assay [4] deals with E. coli 183/58. Briefly: MIC, test tube series dilution test, E. coli 183/58. The settings on record: 24 hours, 37°C. The assay is classed as cell-based.
The test system of assay [5] is E. coli 14. The assay is classed as cell-based. To be noted: E. coli 14; 24 hours, 37°C.
Assay [6] deals with E. coli A 261. Briefly: MIC, test tube series dilution test, E. coli A 261. The class given is cell-based. To be noted: 24 hours, 37°C.
The test system of assay [7] is Klebsiella 63. Put plainly: MIC, test tube series dilution test, Klebsiella 63. The class given is cell-based. The settings on record: Klebsiella 63; 24 hours, 37°C.
The subject of assay [8] is E. coli C 165. Put plainly: MIC, test tube series dilution test, E. coli C 165. The class given is cell-based. To be noted: 24 hours, 37°C.
The test system of assay [9] is Klebsiella K 10. Put plainly: MIC, test tube series dilution test, Klebsiella K 10. The assay is classed as cell-based. To be noted: 24 hours, 37°C.
Assay [10] relates to Proteus morg. 932. Briefly: MIC, test tube series dilution test, Proteus morg. 932. The class given is cell-based. The settings on record: 24 hours, 37°C.
The subject of assay [11] is Proteus vulg. 1017. The assay is classed as cell-based, Proteus vulgaris. The settings on record: Proteus 1017; 24 hours, 37°C.
Assay [12] relates to Staph. aureus 1756. Briefly: MIC, test tube series dilution test, Staph. aureus 1756. To be noted: Staph. aureus 1756; 24 hours, 37°C. The assay is classed as cell-based, Staphylococcus aureus.
The subject of assay [13] is Psdm. aerug. Walter. Briefly: MIC, test tube series dilution test, Psdm. aerug. Walter. The class given is cell-based, Pseudomonas aeruginosa. The settings on record: Psdm. aerug. Walter; 24 hours, 37°C.

For `Cc1cc(C)cc(C(=O)Nc2ccc(C(=O)N[C@@H](C(=O)N[C@@H]3C(=O)N4[C@@H]3SC(C)(C)[C@@H]4C(=O)O)c3ccccc3)cc2)c1` [Example 21], the MIC in assay [1] is recorded as ~ 4 U/ml; in assay [2], ~ 16 U/ml; in assay [3], less than 1 U/ml; in [4], ~ 1 U/ml; in assay [5] it was less than 1 U/ml; in assay [6], ~ 256 U/ml.

As to `CC1(C)S[C@@H]2[C@H](NC(=O)[C@H](NC(=O)c3ccc(NC(=O)c4ccc(C(F)(F)F)cc4)cc3)c3ccccc3)C(=O)N2[C@H]1C(=O)O` [Example 23], the MIC in [3], in [4] and in assay [5] was less than 1 U/ml each time.

Regarding `CC1(C)S[C@@H]2[C@H](NC(=O)[C@H](NC(=O)c3ccc(N)cc3)c3ccccc3)C(=O)N2[C@H]1C(=O)O` [Example 34, sodium D(-)-α-(4-amino-benzoylamino)-benzylpenicillin], the MIC in assay [1] is reported as ~ 4 U/ml; in [7] it was 128 U/ml; in assay [8], 32 U/ml; in [2] it was 64 U/ml; in assay [3], less than 1 U/ml; in assay [9], 256 U/ml. In addition, the MIC in assay [5] is ~ 16 U/ml; in assay [6], greater than 256 U/ml; in assay [10], greater than 256 U/ml; in assay [11], 128 U/ml; in assay [12], 32 U/ml.

On to `CNC(=O)Nc1ccc(C(=O)N[C@@H](C(=O)N[C@@H]2C(=O)N3[C@@H]2SC(C)(C)[C@@H]3C(=O)O)c2ccccc2)cc1` [Example 44], for which the MIC in assay [1] was 4 U/ml; in [7], 128 U/ml; in [8], 16 U/ml; in assay [2], ~ 64 U/ml; in assay [3], less than 1 U/ml; in [9] it was 256 U/ml. In addition, the MIC is listed as ~ 8 U/ml in assay [5], greater than 256 U/ml in [11] and 64 U/ml in assay [12].

`CNC(=S)Nc1ccc(C(=O)N[C@@H](C(=O)N[C@@H]2C(=O)N3[C@@H]2SC(C)(C)[C@@H]3C(=O)O)c2ccccc2)cc1` [Example 47]: the MIC in assay [1] is on record as 4 U/ml; in assay [13], greater than 256 U/ml; in assay [7], 128 U/ml; in assay [8], 32 U/ml; in assay [2], 64 U/ml; in [3] it was less than 1 U/ml. The MIC in assay [9] is on record as 256 U/ml; in assay [5], 16 U/ml; in assay [6], greater than 256 U/ml; in assay [10], greater than 256 U/ml; in assay [11], 32 U/ml; in assay [12], 64 U/ml.

Turning to `CC1(C)S[C@@H]2[C@H](NC(=O)[C@H](NC(=O)c3cc(NC(=O)C4CC4)ccc3Cl)c3ccccc3)C(=O)N2[C@H]1C(=O)O` [Example 53], the MIC in [1] is listed as 2-4 U/ml; in assay [7], 128-256 U/ml; in [8], 128-256 U/ml; in [2], 128-256 U/ml; in assay [3] it was less than 1 U/ml; in assay [9], greater than 256 U/ml. In addition, the MIC is on record as 128-256 U/ml in [4], 32 U/ml in [5], greater than 256 U/ml in [11] and 32-64 U/ml in [12].

Take `CC1(C)S[C@@H]2[C@H](NC(=O)[C@H](NC(=O)CNC(=O)c3ccc(NC(=O)C4CC4)cc3)c3ccccc3)C(=O)N2[C@H]1C(=O)O` [Example 64]: the MIC turned out to be 8 U/ml in assay [1]; 64 U/ml in assay [7]; 32 U/ml in [8]; 256 U/ml in assay [2]; 128 U/ml in assay [9]; 64 U/ml in assay [4]. The MIC was greater than 256 U/ml in assay [6], greater than 256 U/ml in [10], 64 U/ml in [11] and 16 U/ml in [12].
